Among the data in ChEMBL document CHEMBL4270497, “Recent advances (2015-2016) in anticancer hybrids” (Eur J Med Chem, 2017) are IC50 and inhibition of growth values, retold here.

Converted amounts (≈) assume the structure as drawn. Some results are limits rather than exact numbers.

Test [1] concerns A549. In words: Cytotoxicity in human A549 cells assessed a reduction in cell viability incubated for 48 hrs by MTT assay. Type of test: functional, cell-based. The note with it: A549, 48 h.
Test [2] has as its system MCF7. In words: Antiproliferative activity against human MCF7 cells incubated for 48 hrs by MTT assay. Type of test: functional, cell-based. As to conditions: MCF7, 48 h. (In general: Formazan colour is commonly taken as a measure of viable cells.)
In another test the test system is HCT-116. In words: Antiproliferative activity against human HCT116 cells incubated for 48 hrs by MTT assay. The test is classed as functional, cell-based. As to conditions: HCT-116, 48 h.
Test [3] has as its system A549. In words: Antiproliferative activity against human A549 cells incubated for 48 hrs by MTT assay. The test is classed as functional, cell-based. The note with it: A549, 48 h.
The test system of test [4] is HeLa. In words: Antiproliferative activity against human HeLa cells incubated for 48 hrs by MTT assay. Type of test: functional, cell-based.
The test system of test [5] is MDA-MB-231. In words: cells. As to conditions: Homo sapiens, MDA-MB-231, 24 h.
Description: Cytotoxicity in human MDA-MB-231 cells assessed as reduction in cell viability incubated for 24 hrs by MTT assay
In test [6] the test system is A549. In words: Antiproliferative activity against human A549 cells incubated for 24 hrs by MTT assay. Type of test: functional, cell-based. The note with it: A549, 24 h.
Test [7] concerns HeLa. In words: Antiproliferative activity against human HeLa cells incubated for 24 hrs by MTT assay. The test is classed as functional, cell-based.
The test system of test [8] is MCF7. In words: Antiproliferative activity against human MCF7 cells incubated for 24 hrs by MTT assay. Type of test: functional, cell-based. As to conditions: MCF7, 24 h.
The target of test [9] is Epidermal growth factor receptor (Homo sapiens, UniProt P00533). In words: Inhibition of 6x-His-tagged human EGFR cytoplasmic domain (645 to 1186 amino acids) assessed as reduction in autophosphorylation pre-incubated for 10 mins and measured after 1 hr by DELFIA/time-resolved fluorometry.
Sequence of Epidermal growth factor receptor (P00533 whole entry, the tested form may be a part): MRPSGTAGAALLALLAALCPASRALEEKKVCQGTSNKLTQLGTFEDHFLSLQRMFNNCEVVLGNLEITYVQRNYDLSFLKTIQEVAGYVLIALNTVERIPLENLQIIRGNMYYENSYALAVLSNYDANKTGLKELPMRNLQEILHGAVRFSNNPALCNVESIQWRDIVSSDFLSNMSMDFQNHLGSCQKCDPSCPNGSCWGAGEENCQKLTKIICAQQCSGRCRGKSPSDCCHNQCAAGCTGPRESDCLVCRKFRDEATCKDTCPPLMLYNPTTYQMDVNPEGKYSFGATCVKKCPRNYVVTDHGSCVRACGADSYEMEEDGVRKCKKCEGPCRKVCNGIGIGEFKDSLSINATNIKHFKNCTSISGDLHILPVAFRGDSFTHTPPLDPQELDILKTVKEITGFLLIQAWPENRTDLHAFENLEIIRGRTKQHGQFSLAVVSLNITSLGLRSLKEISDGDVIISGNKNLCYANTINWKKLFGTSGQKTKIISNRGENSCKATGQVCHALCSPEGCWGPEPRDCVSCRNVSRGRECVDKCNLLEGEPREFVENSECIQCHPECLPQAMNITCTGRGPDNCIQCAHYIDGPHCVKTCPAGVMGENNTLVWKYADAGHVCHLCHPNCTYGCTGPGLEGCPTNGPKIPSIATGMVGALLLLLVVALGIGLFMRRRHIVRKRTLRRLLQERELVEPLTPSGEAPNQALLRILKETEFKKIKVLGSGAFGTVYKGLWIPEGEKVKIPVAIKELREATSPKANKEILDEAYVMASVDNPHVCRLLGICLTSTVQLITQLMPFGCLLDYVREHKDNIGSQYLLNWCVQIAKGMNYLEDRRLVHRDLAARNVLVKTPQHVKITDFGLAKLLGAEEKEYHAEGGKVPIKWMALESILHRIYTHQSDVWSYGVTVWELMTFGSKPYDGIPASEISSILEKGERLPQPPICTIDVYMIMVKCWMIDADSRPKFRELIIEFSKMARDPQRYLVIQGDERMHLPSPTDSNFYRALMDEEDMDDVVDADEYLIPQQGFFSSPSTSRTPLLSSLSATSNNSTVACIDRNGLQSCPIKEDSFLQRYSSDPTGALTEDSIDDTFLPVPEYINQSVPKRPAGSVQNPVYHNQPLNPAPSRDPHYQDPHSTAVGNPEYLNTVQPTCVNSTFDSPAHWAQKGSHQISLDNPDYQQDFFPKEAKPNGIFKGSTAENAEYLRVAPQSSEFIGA
A further test concerns B16-F10. In words: Antiproliferative activity against mouse B16F10 cells incubated for 48 hrs by MTT assay. The test is classed as functional, cell-based. The note with it: B16-F10, 48 h.
For another test, the system named is KB. In words: Cytotoxicity in human KB cells assessed as reduction in cell viability. The test is classed as functional, cell-based.
Test [10] relates to MDA-MB-231. In words: Growth inhibition of human MDA-MB-231 cells at 10 uM. The test is classed as functional. As to conditions: read-out: GI.
The subject of another test is A498. In words: Growth inhibition of human A498 cells at 10 uM. The test is classed as functional. As to conditions: read-out: GI.
The test system of another test is DU-145. In words: Antiproliferative activity against human DU145 cells incubated for 48 hrs by MTT assay. The note with it: DU-145, 48 h. Type of test: functional, cell-based.
In another test the test system is HUVEC. In words: Antiproliferative activity against human HUVEC cells incubated for 48 hrs by MTT assay. Type of test: functional, cell-based.
In test [11] the test system is MDA-MB-231. In words: Antiproliferative activity against human MDA-MB-231 cells incubated for 48 hrs by MTT assay. The test is classed as functional, cell-based. As to conditions: MDA-MB-231, 48 h.
In the next test the test system is SK-OV-3. In words: Antiproliferative activity against human SKOV3 cells incubated for 48 hrs by MTT assay. As to conditions: SK-OV-3, 48 h. Type of test: functional, cell-based.
Another test addresses Tyrosinase (Agaricus bisporus, UniProt O42713). In words: Inhibition of diphenolase activity of mushroom tyrosinase pre-incubated for 30 mins before L-DOPA substrate addition and measured after 1 min by spectrophotometric assay.
The subject of another test is PC-3. In words: Cytotoxicity in human PC3 cells assessed as reduction in cell viability incubated for 48 hrs by MTT assay. The note with it: PC-3, 48 h. Type of test: functional, cell-based.
Test [12] concerns HT-29. In words: Cytotoxicity in human HT-29 cells assessed as reduction in cell viability incubated for 48 hrs by MTT assay. The test is classed as functional, cell-based. As to conditions: HT-29, 48 h.
Test [13] has as its system A549. In words: Cytotoxicity in human A549 cells assessed as reduction in cell viability incubated for 48 hrs by MTT assay. Type of test: functional, cell-based. The note with it: A549, 48 h.
The next test relates to U-87 MG. In words: Cytotoxicity in human U87MG cells assessed as reduction in cell viability incubated for 48 hrs by MTT assay. The test is classed as functional, cell-based, U-87MG ATCC.
Test [14] relates to MCF7. In words: Cytotoxicity in human MCF7 cells assessed as reduction in cell viability incubated for 48 hrs by MTT assay. The test is classed as functional, cell-based. The note with it: MCF7, 48 h.
The test system of another test is HEK293. In words: Antiproliferative activity against HEK293 cells incubated for 48 hrs by MTT assay. Type of test: cell-based. The note with it: Homo sapiens, HEK293, 48 h.
Test [15] has as its system HT-29. In words: Antiproliferative activity against human HT-29 cells incubated for 48 hrs by MTT assay. Type of test: functional, cell-based. The note with it: HT-29, 48 h.

Sequence of Tyrosinase (O42713 whole entry): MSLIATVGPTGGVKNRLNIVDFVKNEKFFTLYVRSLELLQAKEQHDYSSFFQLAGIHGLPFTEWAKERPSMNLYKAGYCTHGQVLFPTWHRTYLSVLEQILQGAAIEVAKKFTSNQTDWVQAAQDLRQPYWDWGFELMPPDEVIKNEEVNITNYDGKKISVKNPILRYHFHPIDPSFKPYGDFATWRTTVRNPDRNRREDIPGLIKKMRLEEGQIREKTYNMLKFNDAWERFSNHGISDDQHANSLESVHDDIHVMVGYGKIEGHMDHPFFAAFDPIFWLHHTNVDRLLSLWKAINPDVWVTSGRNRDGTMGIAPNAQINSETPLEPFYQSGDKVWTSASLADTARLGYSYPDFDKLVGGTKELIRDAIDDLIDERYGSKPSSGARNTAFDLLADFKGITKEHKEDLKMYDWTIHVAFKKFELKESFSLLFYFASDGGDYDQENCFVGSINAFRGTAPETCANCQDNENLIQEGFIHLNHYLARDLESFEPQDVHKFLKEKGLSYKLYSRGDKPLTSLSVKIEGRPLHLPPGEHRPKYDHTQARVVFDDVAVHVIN

Usually IC50 stands for the concentration that gives 50% inhibition. In the test with A549 [1], `COc1cc(-c2nc(/C=C/C(=O)c3ccc([N+](=O)[O-])cc3)cc3c2[nH]c2ccccc23)ccc1F` yielded a 50% inhibitory concentration (IC50) of less than 10000 nM.

In the case of `COc1ccc(N/C=C/C(=O)c2cccnc2Nc2cc(OC)c(OC)c(OC)c2)cc1`, the IC50 in the test on MCF7 [2], in the test on HCT-116, in the test with A549 [3] and in the test with HeLa [4] was 510 to 1290 nM throughout. Consider `CCCC(CC)NC(=O)c1c(C)[nH]c(/C=C2\C(=O)Nc3nc(C)c(O)c(C)c32)c1C` (centres undefined), for which the IC50 in the test with MDA-MB-231 [5] amounted to 3210 nM. Compound `COc1cc(-c2nc(/C=C/C(=O)c3ccc(N)cc3)cc3c2[nH]c2ccccc23)ccc1F` returned an IC50 in the test with A549 [1] of less than 10000 nM. The same measure, in the same setting: the same measure for `Nc1ccc(C(=O)/C=C/c2cc3c([nH]c4ccccc43)c(-c3ccc(F)cc3)n2)cc1`: less than 10000 nM. Still for that read-out and setting: the value for `COc1ccc(-c2nc(/C=C/C(=O)c3cc(OC)c(OC)c(OC)c3)cc3c2[nH]c2ccccc23)cc1OC` was less than 10000 nM. Consider `COc1ccc(Cc2nnc(COc3ncnc4ccccc34)o2)cc1OC`, for which the IC50 in the test on A549 [6] was 380 nM; with HeLa [7] it was 320 nM; in the test with MCF7 [8], 230 nM. As to `O=C1CSC(N2N=C(c3ccncc3)CC2c2ccc(Br)cc2)=N1` (centres undefined), the IC50 in test [9] came to 9 nM; in the test on MCF7 [2], 560 nM; in the test on B16-F10 it was 90 nM; in the test with HeLa [4], 290 nM. Regarding `O=C(/C=C/c1ccc(/C=C/C(=O)c2cccc3c2C(=O)c2ccccc2C3=O)cc1)c1ccccc1`, the IC50 in the test with KB stood at 0.66 µg/mL (≈ 1.41 µM).

In the test on A549 [1], `COc1cc(-c2nc(/C=C/C(=O)c3ccc(O)cc3)cc3c2[nH]c2ccccc23)cc(OC)c1OC` registered a half-inhibitory concentration (IC50) of less than 10000 nM. In the case of `Cc1cc(=O)oc2cc(Oc3nc(-c4ccccc4)cn4c(-c5ccccc5)cnc34)ccc12`, the figures for the inhibition of growth at 10 µM in the test with MDA-MB-231 [10] and in the test with A498 were 93% and 90%, respectively. For `COc1ccc(C(=O)/C=C/c2cc3c([nH]c4ccccc43)c(-c3ccc(F)c(OC)c3)n2)cc1`, in the test with A549 [1], the IC50 was less than 10000 nM.

`CC12CCC(OC(=O)CCC(=O)OCCOc3no[n+]([O-])c3S(=O)(=O)c3ccccc3)CC1=CCC1C2CCC2(C)c3c(cnn3-c3ccccc3)CC12` (centres undefined): the IC50 in the test with DU-145 is 20 nM; in the test with HUVEC, 3.5 nM; in the test with MDA-MB-231 [11], 1.4 nM; in the test with SK-OV-3 it was 3.4 nM. Turning to `COc1cc(-c2nc(/C=C/C(=O)c3ccc(F)cc3)cc3c2[nH]c2ccccc23)cc(OC)c1OC`, the IC50 with A549 [1] was less than 10000 nM. Take `CN(C)c1ccc(C2CC(c3cc4ccccc4o3)=NN2C(=O)Nc2ccc(Cl)cc2)c2ccccc12` (centres undefined): the IC50 against Tyrosinase is 4720 nM. For the compound `COc1ccc(-c2nn(-c3ccccc3)cc2C(=O)c2cn(Cc3ccc(OC)c(OC)c3)nn2)cc1`, the IC50 is 3520 nM with PC-3, 1780 nM in the test with HT-29 [12], 2240 nM in the test on A549 [13] and 970 nM with U-87 MG.

For the compound `O=Cc1c(-c2cc3cc(Br)ccc3oc2=O)[nH]c2ccccc12`, the half-inhibitory concentration (IC50) in the test with MCF7 [14] was determined as 7400 nM. On to `COc1cc(C(=O)/C=C/c2cc3c([nH]c4ccccc43)c(-c3ccc(F)cc3)n2)cc(OC)c1OC`, for which, in the test on A549 [1], the 50% inhibitory concentration (IC50) is less than 10000 nM.

For `COc1ccc(C(=O)/C=C/c2cc3c([nH]c4ccccc43)c(-c3ccc(F)cc3)n2)cc1`, in the test on A549 [1], the IC50 was less than 10000 nM. Turning to `COc1cc(Cn2cc(C(=O)c3cccnc3Nc3ccc(F)cc3)nn2)cc(OC)c1`, the IC50 in the test with DU-145 was 3000 nM; with HEK293 it was 75200 nM; in the test with HT-29 [15], 3100 nM; in the test on A549 [3], 3900 nM.

On to `COc1cc(-c2nc(/C=C/C(=O)c3ccc([N+](=O)[O-])cc3)cc3c2[nH]c2ccccc23)cc(OC)c1OC`, for which the IC50 in the test with A549 [1] was less than 10000 nM.
